Target: CycE1-CDK2 (Homo sapiens, UniProt P24941)
Test: Cdk2 Enzymatic TR-FRET Assay
Format: biochemical
Conditions: CDK2/CycE 5 nM, ATP 100 μM, 60 minutes pre-incubation with compound; read-out: CDK2 Kinase
Source text: A TR-FRET system was used to detect CycE1-CDK2 kinase activity. The assay used a Europium-labeled anti-phospho-Ser/Thr antibody and ULight™-labeled peptide substrate (eIF4E-binding protein 1). When CycE1-CDK2 phosphorylates the peptide the phosphorylated Thr is recognized by the Europium-labeled anti-phospho-Ser/Thr antibody. Upon excitation of the Europium donor fluorophore at 337 nm, energy is transferred to the ULight™ acceptor dye on the substrate, resulting in the emission of light at 665 nm. The fluorescent signal is proportional to the level of ULight™ peptide phosphorylation and to the kinase activity.
The stock solution was prepared as follows: • 1× Reaction buffer: 50 mM HEPES pH 7.5, 10 mM MgCl2, 0.5 mM TCEP, 0.01% Tween®20, 1 mM EGTA, 0.001% fatty acid free (faf)-BSA; • 1× Detection buffer: equilibrate the Detection buffer at RT for at least 20 minutes then dilute 10-fold the stock in water; • 4×ENZYME mix: CDK2/CycE enzyme (5 nM final concentration in kinase reaction) in 1× Reaction buffer; • 4×SUBSTRATE mix: 4E-BP substrate (50 nM final concentration in kinase reaction)+ATP (100 μM final concentration in kinase reaction) in 1× Reaction buffer • 2×STOP/DETECTION mix: EDTA (10 mM final concentration in assay)+Anti-Phosphate antibody (0.5 nM final concentration in assay) in 1× Detection buffer • Neutral Control: Assay with no inhibition (MAX activity) • Inhibitor Control: Assay with IC100 (1 mM) reference inhibitor JNJ7706621 (MIN activity)
The assay was assembled directly in a white, small volume, Proxiplate (PerkinElmer) as follows: • Step 1: Charge compounds=5 μL/well • Step 2: Charge kinase=2.5 μL/well→total volume 7.5 μL/well • The plate is sealed and incubated at room temperature for 60 minutes • Step 3: Substrate mix (substrate/ATP)=2.5 μL/well→total enzymatic reaction volume 10 μL/well • The plate is sealed and incubated at room temperature for 60 minutes • Step 4: Stop/Detection mix (EDTA/antibody)=10 μL/well→total volume 20 μL/well • The plate is sealed and incubated at room temperature for at least 2 hours and fluorescence signal is measured at PHERAstar FSX The reading conditions are the followings for PHERAstar FSX:
A 384-microtiter plate (MTP), containing 20 test compounds in eight-points dose response, is prepared. Test compounds dose response curves are prepared in automation in 100% DMSO in a CyBio Felix, starting from a DMSO stock solution of 10 mM. To obtain the eight-points dose-response curve, a serial dilution protocol in 100% DMSO is performed for each compound by using a 96 MTP as a support. 20 μL of the 10 mM stock solutions are transferred in row A of a 96 MTP U-bottom from column 2 to 11 for a total of 10 compounds/plate. Starting from the 10 mM stock, serial dilutions across rows, from A to B and proceeding up to H, are performed for each compound by transferring 6.3 μL of the more concentrated fluid in 13.7 μL of 100% DMSO.
In order to generate duplicate data points each well of the 96 MTP is then replicated into two wells of a 384 MTP plate for each compound and for each concentration to be tested. The 384 MTP compound plate is used as source plate in a “mother to child” process with a CyBi®-Well dispenser in which 1 μL of compound is moved into a destination plate pre-filled with 24 μL of reaction buffer, obtaining 2× concentrated compound solution.
Genedata Screener® 17.0 was used for data analysis. In the implemented workflow, the following calculations were conducted: • Calculate the Response Value (KRV) from the respective original data as follow:
HTRF Assay: Ratio=665 nm_FRET/620 nm_Ab*10000 • Calculate the % Inhibition of the compound (Inhibitory effect). KRV was normalized versus Neutral Controls and Inhibitor Controls (JNJ7706621) to obtain Activity % according to the following formula:
Activity %=−100*(x−<Neutral Control>)/(<Inhibitor Control>−<Neutral Control>) […]

Row | SMILES | IC50
1 | CS(=O)(=O)N1CCC(Nc2ncc3ccc(=O)n(Cc4ccc(S(=O)(=O)n5cncn5)cc4)c3n2)CC1 [Compound 241] | < 10 µM
2 | CS(=O)(=O)N1CCC(Nc2ncc3ccc(=O)n(CCCS(=O)(=O)n4cnc(-c5ccccc5)n4)c3n2)CC1 [Compound 246] | < 10 µM
3 | Cc1cc(NC(=O)Cn2c(=O)ccc3cnc(NC4CCN(S(C)(=O)=O)CC4)nc32)ccc1S(=O)(=O)n1cnc(C2CC2)n1 [Compound 239] | < 10 µM
4 | Cc1cc2cnc(NC3CCN(S(C)(=O)=O)CC3)nc2n(CCCS(=O)(=O)n2cnc(-c3ccccc3)n2)c1=O [Compound 299] | < 10 µM
5 | CS(=O)(=O)N1CCC(Nc2ncc3ccc(=O)n(CCS(=O)(=O)n4cncn4)c3n2)CC1 [Compound 291] | < 10 µM
6 | O=C(Cn1c(=O)ccc2cnc(NC3CCOCC3)nc21)Nc1ccc(S(=O)(=O)n2cnc(C3CC3)n2)cc1 [Compound 279] | < 10 µM
7 | CNc1ncc2ccc(=O)n(CC(=O)Nc3ccc(S(=O)(=O)n4cnc(-c5ccccc5)n4)cc3)c2n1 [Compound 249] | > 200 µM
8 | Cc1cc(S(=O)(=O)n2cnc(-c3ccccc3)n2)ccc1NC(=O)Cn1c(=O)ccc2cnc(NC3CCN(S(C)(=O)=O)CC3)nc21 [Compound 252] | < 10 µM
9 | CC(C)c1ncn(S(=O)(=O)c2ccc(NC(=O)Cn3c(=O)ccc4cnc(NC5CCN(S(C)(=O)=O)CC5)nc43)cc2)n1 [Compound 255] | < 10 µM
10 | O=C(Cn1c(=O)ccc2cnc(NC3CC3)nc21)Nc1ccc(S(=O)(=O)n2cnc(C3CC3)n2)cc1 [Compound 283] | < 10 µM
11 | CS(=O)(=O)N1CCC(Nc2ncc3ccc(=O)n(CC(=O)Nc4ccc(S(=O)(=O)n5cnc(C6CC6)n5)cc4)c3n2)CC1 [Compound 232] | < 10 µM
12 | O=C(Cn1c(=O)ccc2cnc(NC3CCOC3)nc21)Nc1ccc(S(=O)(=O)n2cnc(C3CC3)n2)cc1 (stereo not drawn) [Compound 275] | < 10 µM
13 | Cc1cc2cnc(NC3CCN(S(C)(=O)=O)CC3)nc2n(CCCS(=O)(=O)n2cncn2)c1=O [Compound 298] | < 10 µM
14 | CN1CCC(Nc2ncc3ccc(=O)n(CC(=O)Nc4ccc(S(=O)(=O)n5cnc(C6CC6)n5)cc4)c3n2)CC1 [Compound 280] | > 200 µM
15 | CNc1ncc2ccc(=O)n(CC(=O)Nc3ccc(S(=O)(=O)n4cnc(C5CC5)n4)cc3)c2n1 [Compound 248] | < 10 µM
16 | O=C(Cn1c(=O)ccc2cnc(NC3CC(F)(F)C3)nc21)Nc1ccc(S(=O)(=O)n2cnc(C3CC3)n2)cc1 [Compound 281] | < 10 µM
17 | CS(=O)(=O)N1CCC(Nc2ncc3ccc(=O)n(CC(=O)NCc4ccc(S(=O)(=O)n5cnc(-c6ccccc6)n5)cc4)c3n2)CC1 [Compound 240] | < 10 µM
18 | CNc1ncc2ccc(=O)n(CC(=O)Nc3ccc(S(=O)(=O)n4cncn4)cc3)c2n1 [Compound 247] | < 10 µM

Second part, the compound after the results:

Row | IC50 | SMILES
19 | < 10 µM | Cc1cc2cnc(NC3CCN(S(C)(=O)=O)CC3)nc2n(CCCS(=O)(=O)n2cnc(C3CC3)n2)c1=O [Compound 289]
20 | < 10 µM | CS(=O)(=O)N1CCC(Nc2ncc3ccc(=O)n(CCS(=O)(=O)n4cnc(C5CC5)n4)c3n2)CC1 [Compound 264]
21 | > 200 µM | CC(C)N1CCC(Nc2ncc3ccc(=O)n(CCCS(=O)(=O)n4cnc(C5CC5)n4)c3n2)CC1 [Compound 277]
22 | < 10 µM | CS(=O)(=O)N1CCC(Nc2ncc3cc(CO)c(=O)n(CCCS(=O)(=O)n4cnc(C5CC5)n4)c3n2)CC1 [Compound 300]
23 | < 10 µM | CC(C)CNc1ncc2ccc(=O)n(CCCS(=O)(=O)n3cnc(C4CC4)n3)c2n1 [Compound 269]
24 | < 10 µM | O=c1ccc2cnc(NC3CCCCCC3)nc2n1CCCS(=O)(=O)n1cnc(C2CC2)n1 [Compound 270]
25 | 10 to 100 µM | O=c1ccc2cnc(NCC3CC3)nc2n1CCCS(=O)(=O)n1cnc(C2CC2)n1 [Compound 266]
26 | 10 to 100 µM | O=c1ccc2cnc(NC3CCOC3)nc2n1CCCS(=O)(=O)n1cnc(C2CC2)n1 (stereo not drawn) [Compound 267]
27 | < 10 µM | CS(=O)(=O)N1CCC(Nc2ncc3cc(Cl)c(=O)n(CCCS(=O)(=O)n4cnc(C5CC5)n4)c3n2)CC1 [Compound 286]

Reference: patent US20230406853A1, “COVALENT CDK2-BINDING COMPOUNDS FOR THERAPEUTIC PURPOSES” (Umbra Therapeutics, Inc., priority 2021, published 2023)
